We go through six molecules from ChEMBL document CHEMBL1139541 (J Med Chem, 2005).

SMILES strings stand for the structures.

A word on the Ki: it is a dissociation constant, usually derived from enzyme kinetics or from competition with a known ligand.

Test [1] concerns the target Melatonin receptor type 1A (Homo sapiens, UniProt P48039). Nature of the test: Inhibition of 2-[125I]iodomelatonin binding to human melatonin receptor type 1A (MT1) expressed in […] cells. Format: cell-based.
The target of test [2] is T1, Melatonin receptor type 1B (Homo sapiens, UniProt P49286).
T1 sequence (P49286 whole entry): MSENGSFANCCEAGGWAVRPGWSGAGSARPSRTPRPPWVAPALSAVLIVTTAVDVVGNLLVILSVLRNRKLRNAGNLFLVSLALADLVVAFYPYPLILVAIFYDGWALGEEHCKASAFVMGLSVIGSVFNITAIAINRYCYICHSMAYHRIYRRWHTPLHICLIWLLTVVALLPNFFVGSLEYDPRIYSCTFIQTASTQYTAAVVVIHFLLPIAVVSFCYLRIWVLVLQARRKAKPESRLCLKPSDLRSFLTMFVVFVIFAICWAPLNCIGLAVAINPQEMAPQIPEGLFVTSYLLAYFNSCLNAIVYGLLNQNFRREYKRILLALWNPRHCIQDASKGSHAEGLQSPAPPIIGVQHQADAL
Nature of the test: Inhibition of 2-[125I]iodomelatonin binding to human melatonin receptor MT2 expressed in […] cells. Format: cell-based.

The target of test [3] is T2, Melatonin receptor type 1B (Homo sapiens) (UniProt P49286).
T2 sequence (whole entry): T1 sequence (P49286 whole entry)
Nature of the test: Intrinsic activity in [35S]GTP-gamma-S, binding at human melatonin receptor MT2 relative to melatonin. Format: functional.

Sequence of Melatonin receptor type 1A (P48039 whole entry): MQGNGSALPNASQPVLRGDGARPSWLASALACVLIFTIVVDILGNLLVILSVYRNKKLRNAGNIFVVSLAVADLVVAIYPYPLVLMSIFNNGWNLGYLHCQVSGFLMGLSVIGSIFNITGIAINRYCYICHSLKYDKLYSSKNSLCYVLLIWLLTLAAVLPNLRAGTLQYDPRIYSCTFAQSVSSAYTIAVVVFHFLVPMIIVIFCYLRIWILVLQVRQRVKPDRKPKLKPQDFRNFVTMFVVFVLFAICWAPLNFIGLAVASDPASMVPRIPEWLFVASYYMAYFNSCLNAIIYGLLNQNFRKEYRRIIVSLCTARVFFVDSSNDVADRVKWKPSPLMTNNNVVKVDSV

As to `CCC(=O)NCc1cc2c(OC)cccc2n1C(=O)c1ccc(Cl)cc1`, the inhibition constant (Ki) in test [1] is greater than 10000 nM; in test [2], 1820 nM. Moreover, the IA in test [3] is -0.08.

`CCC(=O)NCc1cc2c(OC)cccc2n1Cc1c(C)cccc1C`: the results for the Ki in test [1] and in test [2] were greater than 10000 nM and 6030 nM, respectively. For the same molecule, the IA in test [3] came to 0.16.

For `COc1cc2c(cc1OC)C(CC(c1ccccc1)c1ccccc1)N(C(C)=O)CC2` (centres undefined), the results for the inhibitory constant (Ki) in test [1] and in test [2] were greater than 1000 nM and 9.77 nM, respectively.

Consider `CCC(=O)NC1Cc2ccccc2C(c2ccccc2)C1` (centres undefined), for which the Ki in test [1] was 105 nM; in test [2], 0.0158 nM.

For the molecule `CCC(=O)NCc1cc2c(OC)cccc2n1Cc1ccc(Cl)cc1`, the IA in test [3] turned out to be 0.01.

In the case of `CCC(=O)NCc1cc2c(OC)cccc2n1S(=O)(=O)c1ccccc1`, the Ki in test [1] was greater than 10000 nM; in test [2] it was 288 nM. The molecule also showed an IA in test [3] of 0.08.
